The text below walks through data of patent US5561117A, “Bridged bis-aryl carbinol derivatives, compositions and methods of use” (Schering Corporation, priority 1994, dated 1996).

Broadly, the IC50 is the concentration needed to halve the response being measured.

Assay [1] deals with PAF-induced platelet aggregation (human platelets). In words: In vitro platelet aggregation assay: inhibition of PAF-induced aggregation in platelet-rich plasma. In kind it is cell-based. The conditions noted are these: PAF-induced aggregation of human PRP, 2 min preincubation, 37° C., PAF 1-5×10^-8 M, read-out: PAF Antagonism (in vitro) IC50. As to the method:
A. In Vitro Studies--Platelet Aggregation Assay
Platelet-activating factor (PAF) causes aggregation of platelets by a receptor-mediated mechanism. Therefore, PAF-induced platelet aggregation provides a simple and convenient assay to screen compounds for PAF antagonism.
Human blood (50 ml) was collected from healthy male donors in an anticoagulant solution (5 ml) containing sodium citrate (3.8%) and dextrose (2%). Blood was centriguged at 110×g for 15 min. and the supernatant platelet-rich plasma (PRP) carefully transferred into a polypropylene tube. Platelet-poor-plasma (PPP) was prepared by centrifuging PRP at 12,000×g for 2 min. (Beckman Microfuge B). PRP was used within 3 hr. of drawing the blood.
PAF was dissolved in chloroform:methanol (1:1, v/v) at a concentration of 2 mg/ml and stored at -70° C. An aliquot of this solution was transferred to a polypropylene tube and dried under a flow of nitrogen gas. To the dried sample was added Hepes-saline-BSA (BSA=bovine serum albumen) buffer (25 mM Hepes, pH 7.4, […], 0.7 mM MgCl2 and 0.1% BSA) to obtain a 1 mM solution and sonicated for 5 min. in a bath sonicator. This stock solution was further diluted to appropriate concentrations in Hepes-saline-BSA buffer. Collagen (Sigma) and adenosine diphosphate (ADP) (Sigma) were purchased as solutions. Test compounds were initially dissolved in dimethyl sulfoxide (DMSO) at a concentration of 50 mM and then further diluted in Hepes-saline-BSA buffer to achieve appropriate concentrations.
When an aggregating agent such as PAF is added to PRP, platelets aggregate. An aggregometer quantifies this aggregation by measuring and comparing light (infra-red) transmission through PPP and PRP. Aggregation assays were performed using a dual-channel aggregometer (Model 440, Chrono-Log Corp., Havertown, Pa.). PRP (0.45 ml) in aggregometer cuvettes was continually stirred (37° C.). Solutions (50 μL) of test compounds or vehicel were added to the PRP and, after incubation for 2 min., 10-15 μl aliquots of PAF solution were added to achieve a final concentration of 1-5×10^-8 M. In different experiments the aggreatory response was kept within a set limit by varying the concentration of PAF. Incubations were continued until the increase in light transmission reached a maximum (usually 2 min.). This increase in light transmission reflecting platlet aggregation is transmitted to a computer by the Chrono-Log model 810 AGGRO/LINK interface. The AGGRO/LINK calculates the slope of transmission change, thus providing the rate of aggregation. Values for inhibition were calculated by comparing rates of aggregation obtained in the absence and the presence of the compound. For each experiment, a standard PAF antagonist such as 8-chloro-6,11-dihydro-11-(1-acetyl-4-piperidylidene)-5H-benzo[5,6]cyclohepta[1,2-b]pyridine was used as a positive control. […]

The test system of assay [2] is histamine-induced bronchospasm. Description: Spasmogen-induced bronchospasm in guinea pigs, histamine challenge. In kind it is in vivo, guinea pig (male Hartley). The note with it: dose 3 mpk, histamine 10 ug/kg i.v., inhibition of increase in inflation pressure vs control.
The next assay deals with PAF-induced bronchospasm. Description: Spasmogen-induced bronchospasm in guinea pigs, PAF challenge. In kind it is in vivo, guinea pig (male Hartley). The conditions noted are these: dose 3 mpk, PAF 0.4 μg/kg i.v., inhibition of increase in inflation pressure vs control.

As to `[O-][n+]1ccc(CN2CCC(C3(O)c4ccccc4Oc4ncccc43)CC2)cc1` (stereo not shown) [IA-12], in assay [1], the IC50 stood at 3000 nM. Moreover, the “Agonist Bronchospasm (in Vivo)-oral, Histamine, % Inhibition” value in assay [2] amounted to 0%. Besides, the “Agonist Bronchospasm (in Vivo)-oral, PAF, % Inhibition” value with PAF-induced bronchospasm worked out at 42%.

On to `[O-][n+]1ccc(CN2CCC(C3(O)c4ccccc4Oc4cccnc43)CC2)cc1` (stereo not shown) [IA-11], for which, in assay [1], the IC50 amounted to 5000 nM.

Regarding `O=C(c1cc[n+]([O-])cc1)N1CCC(C2(O)c3ccccc3Oc3cnccc32)CC1` (stereo not shown) [IA-1], the IC50 in assay [1] worked out at 5000 nM.

In the case of `O=C(c1cc[n+]([O-])cc1)N1CCC(C2(O)c3ccccc3CCc3cccnc32)CC1` (stereo not shown) [IA-8], the IC50 in assay [1] came out at 2000 nM. Further, the “Agonist Bronchospasm (in Vivo)-oral, PAF, % Inhibition” value in the assay with PAF-induced bronchospasm is recorded as 25%.

For `[O-][n+]1ccc(CN2CCC(C3(O)c4ccccc4Sc4ccccc43)CC2)cc1` [IA-14], the IC50 in assay [1] amounted to 1750 nM.

For `CN1c2ccccc2C(O)(C2CCN(C(=O)c3cc[n+]([O-])cc3)CC2)c2ccccc21` [IA-5], in assay [1], the half-inhibitory concentration (IC50) came out at 5000 nM. In addition, in the assay on PAF-induced bronchospasm, the “Agonist Bronchospasm (in Vivo)-oral, PAF, % Inhibition” value is 7%.

For `[O-][n+]1ccc(CN2CCC(C3(O)c4ccccc4Oc4cnccc43)CC2)cc1` (stereo not shown) [IA-9], the concentration for half-maximal inhibition (IC50) in assay [1] was over 10000 nM.

As for `O=C(c1cc[n+]([O-])cc1)N1CCC(C2(O)c3ccccc3Oc3cccnc32)CC1` (stereo not shown) [IA-3], in assay [1], the concentration for half-maximal inhibition (IC50) is 2000 nM. Further, the “Agonist Bronchospasm (in Vivo)-oral, Histamine, % Inhibition” value in assay [2] came out at 0%. Also, the “Agonist Bronchospasm (in Vivo)-oral, PAF, % Inhibition” value in the assay with PAF-induced bronchospasm was 97%.

With `[O-][n+]1ccc(CN2CCC(C3(O)c4ccccc4Oc4ccccc43)CC2)cc1` [IA-10], in assay [1], the IC50 stood at 10000 nM.

With `O=C(c1cc[n+]([O-])cc1)N1CCC(C2(O)c3ccccc3Oc3ccccc32)CC1` [IA-2], the IC50 in assay [1] was determined as 5000 nM.

On to `O=C(c1cc[n+]([O-])cc1)N1CCC(C2(O)c3ccccc3Sc3ccccc32)CC1` [IA-6], for which the concentration for half-maximal inhibition (IC50) in assay [1] worked out at 1500 nM. For the same molecule, the “Agonist Bronchospasm (in Vivo)-oral, PAF, % Inhibition” value in the assay on PAF-induced bronchospasm turned out to be 20%.

For the molecule `O=C(c1cc[n+]([O-])cc1)N1CCC(C2(O)c3ccccc3Oc3ncccc32)CC1` (stereo not shown) [IA-4], the half-inhibitory concentration (IC50) in assay [1] was 800 nM.
